“Also recorded” adds a separate entry of the source.
How the values were obtained:
Format in all cases: cell-based
[1] = tested on: parental and C20orf196 KO SUM149 tumouroids; test: Tumouroid assay, parental vs C20orf196 KO SUM149
Experimental: (§1) Cells were seeded into a hydrogel containing 10% rat tail collagen (OcellO) in 384-well high content imaging microplates at varying densities to compensate for differential growth characteristics (Table 2).
(§2) 24 hours after seeding, test compounds and olaparib (Selleckchem) were added in an eight-point dose range with a one in three serial dilution (maximum concentration 12 μM for all compounds, except 30 μM compound A for REV7 KO cell experiments). Dimethyl sulfoxide (DMSO) and 1 μM staurosporine (Med Chem Express) treatments were included as negative and positive controls, respectively. All treatments were carried out in quadruplicate.
After seven or fourteen days of treatment for 20orf196 KO and REV7 KO experiments respectively, cells were fixed with 5× Fix & Stain solution (OcellO) for 16 hours at 4° C. to stain both the nuclei using Hoechst 33258 and the actin cytoskeleton using Rhodamine-Phalloidin. Cells were washed four times with phosphate-buffered saline (PBS), and plates were imaged and analysed using OcellO's three-dimensional image analysis software (Ominer). For each well, two channels of 16-bit image stacks were collected using an automated microscope system: Molecular Devices ImageXpress Micro XLS, equipped with a 4× magnification/0.2NA PlanApo objective. For each image slice (n=47), pixel size was 0.324 μm and step size in z-direction was 50 μm.
Parental or C20orf196 KO SUM149 cells were seeded into a collagen-containing hydrogel in 384-well plates and incubated overnight. The resulting tumouroids were treated with a serial dilution of Polθ inhibitor or olaparib for seven days, fixed, and stained to visualise DNA and F-actin. Plates were imaged, and tumouroid size was measured using OcellO's three-dimensional image analysis software.
(§3) Parental or C20orf196 KO SUM149 cells were seeded into a collagen-containing hydrogel in 384-well plates and incubated overnight. The resulting tumouroids were treated with a serial dilution of Polθ inhibitor or olaparib for seven days, fixed, and stained to visualise DNA and F-actin. Plates were imaged, and the number of nuclei per tumouroid was counted using OcellO's three-dimensional image analysis software.
as §3, with “with” for “with a serial dilution of”, “inhibitor, olaparib” for “inhibitor”, “control compound (at the concentrations indicated)” for “olaparib”, “fraction” for “number”, “without an associated actin cytoskeleton” for “per tumouroid”, “calculated” for “counted”

DLD1 colon cancer cells = test: CRISPR-Cas9 KO synthetic lethality screen; details: compound at approximate EC20, 15 days, vs DMSO
Experimental: The CRISPR KO screen, sample preparation and data analysis were performed by Horizon Discovery using a CRISPR library against 1965 genes with 10 gRNA's per gene. DLD-1 colon cancer cells were grown in RPMI medium with 10% FBS, infected with the lentiviral library (each viral particle containing Cas9 and sgRNA), selected with puromycin for 2 weeks, and treated with compound B (EC17.1%) or DMSO for 15 days. Synthetic lethality scores were calculated by normalizing the sgRNA count from compound treated cells to DMSO treated control.
The synthetic lethal effect between Polθ inhibitor (Compound B) and knockout of any one of 1965 genes in DLD1 colon cancer cell line was assessed. A CRISPR KO screen was performed in DLD1 cells using compound B at an approximate EC20, using DMSO-exposed cells (the compound vehicle) as control. The quantity of cells containing each sgRNA was measured via next generation sequencing. (FIG. 5(a)) REV7 was in the Top 50 hits out of the […] genes screened, based on FDR score together with comparison to a validated synthetic lethal partner BRCA2. (b) Based on the log fold change, REV7 was in the top 25 hits. […] 7 out of 10 gRNA's were synthetic lethal with Polθ inhibition.

[2] = tested on: parental and REV7 KO SUM149 tumouroids; test: Tumouroid assay, parental vs REV7 KO SUM149; details: fourteen days treatment
Experimental: as §1, §2
After seven or fourteen days of treatment for 20orf196 KO and REV7 KO experiments respectively, cells were fixed with 5× Fix & Stain solution (OcellO) for 16 hours at 4° C. to stain both the nuclei using Hoechst 33258 and the actin cytoskeleton using Rhodamine-Phalloidin. Cells were washed four times with phosphate-buffered saline (PBS), and plates were imaged and analysed using OcellO's three-dimensional image analysis software (Ominer). […]
Parental or REV7 KO SUM149 cells were seeded into a collagen-containing hydrogel in 384-well plates and incubated overnight. […] Plates were imaged, and the fraction of nuclei without an associated actin cytoskeleton was calculated using OcellO's three-dimensional image analysis software.

[3] = tested on: parental and REV7 KO 22Rv1 cells; test: Colony formation assay, 22Rv1; details: REV7 KO vs REV7 wild type parental 22Rv1 cells, 2 weeks
Experimental: (§4) 1 mL of cells were seeded per well in a 24-well plate in triplicate and incubated overnight at 37° C. Cells were treated with a seven-point dose response curve with a one-in-three serial dilution of compound for the timepoints listed in Table 5. For MDA-MB-436 cells media was replenished every five days.
(§5) Cells were fixed with 70% ethanol for 20 minutes at room temperature with shaking. Cells were then stained with 0.04% Crystal Violet (Sigma Aldrich) for 20 minutes at room temperature with shaking. Cells were washed 6 times with water and air-dried overnight.
(§6) Plates were imaged using a Gelcount (Oxford Optronix), and colonies were counted using parameters optimized for each cell line. 22Rv1 viability curves were generated from the colony counts alone. MDA-MB-436 and HCC1935 viability curves were generated from solubilized colonies. Colonies were solubilized using 10% acetic acid (VWR) for 30 minutes, absorbance at 595 nm was read using the Clariostar plate reader (BMG Labtech), and blank correction was applied. Relative Survival was calculated by normalization of compound treated wells to DMSO treated wells.
The effect of a DNA polymerase theta (Polθ) inhibitor (Compound A) or the PARP inhibitor olaparib on the survival of parental (REV7 wild type) or REV7 deleted (REV7 KO) 22Rv1 cells was investigated in colony formation assays (CFA—see protocol above). […]

[4] = tested on: SUM149 Parental and C20orf196 KO SUM149 cells; test: Clonogenic survival assay (ICR), SUM149 C20ORF196 KO clones
Experimental: (§7) Clonogenic survival assays were performed as previously described (Edwards et al Nature (2008) 451, 1111-1115; Farmer et al Nature (2005) 434, 917-921). For measurement of sensitivity to Compound A inhibitor, exponentially growing cells were seeded in six-well plates at a concentration of 1000-2000 cells per well. For Compound A, cells were continuously exposed to the drug with media and drug replaced every 72 h. After 14 days, cells were fixed and stained with sulphorhodamine-B (Sigma) and colonies were counted. SFs were calculated and drug sensitivity curves plotted as previously described (Farmer et al Nature (2005) 434, 917-921).
(§8) Parental or C20orf196 KO SUM149 cells were seeded into 6 well plates and incubated overnight. The cells were then exposed to a serial dilution of Polθ inhibitor or olaparib for 14 days, fixed, and stained with sulphorhodamine B. The colonies in each well were counted and normalised survival data plotted to generate a dose-response curve, as described before.

[5] = tested on: Parental and REV7 KO SUM149 cells; test: Clonogenic survival assay (ICR), SUM149 REV7 KO clones; details: REV7 KO clones vs parental SUM149, 14 days
Experimental: as §7
as §8, with “REV7” for “C20orf196”, “treated with” for “exposed to”, “curve.” for “curve, as described before.”

[6] = tested on: parental and SHLD2 KO HCC1395 cells; test: Colony formation assay, HCC1395; details: SHLD2 KO vs parental HCC1395 cells, colony solubilisation protocol
Experimental: as §4, §5
as §6, with “22Rv1 viability curves were generated from the colony counts alone. MDA-MB-436 and HCC1935 viability curves were generated from solubilized colonies.” left out
(§9) The effect of a DNA polymerase theta (Pole) inhibitor (Compound A) and the PARP inhibitor olaparib on the survival of parental and SHLD2 deleted (SHLD2 KO) HCC1395 cells was investigated by colony formation assay. Briefly, each population was seeded at low density, incubated with different concentrations of the compound and the relative survival normalized to untreated cells was measured with the colony solubilisation protocol.

[7] = tested on: parental and SHLD2 KO MDA-MB-436 cells; test: Colony formation assay, MDA-MB-436; details: SHLD2 KO vs parental MDA-MB-436 cells, colony solubilization protocol
Experimental: as §4, §5
as §6, with “22Rv1 viability curves were generated from the colony counts alone. MDA-MB-436 and HCC1935 viability curves were generated from solubilized colonies.” left out
as §9, with “(Polθ)” for “(Pole)”, “MDA-MB-436” for “HCC1395”, “solubilization” for “solubilisation”

[8] = tested on: Shieldin-defective, PARPi-resistant SUM149 cells; test: Re-sensitisation to olaparib; details: deletion of C20orf196 or 53BP1 or expression of BRCA1 in SUM149; olaparib 1 μM 10 days
Experimental: For measurement of re-sensitisation to Olaparib, exponentially growing cells were exposed to Compound A for 48 hours. After, cells were seeded in 96-well plates at a concentration of 1000-2000 cells per well. 24 hours post-seeding, Olaparib treatment was initiated and cells were continuously exposed to the drug with media and drug replenished every 72 hours. After 10 days, cell viability was estimated using Cell-Titre Glo (Promega). SFs were calculated and drug sensitivity curves plotted as previously described (Farmer et al Nature (2005) 434, 917-921).
Briefly, parental SUM149 cells or derivatives with either BRCA1 restored or with genetic deletion of either C20orf196 or 53BP1 were treated with Compound A in a tissue culture flask for 48 hours. The cells were then washed before seeding at low density in 96 well plates. 24 hours post seeding, cells were incubated with either olaparib or DMSO for a further 10 days. The relative survival normalised to untreated cells was measured using Cell-Titre Glo.

[9] = in C20orf196 KO cells when compared with olaparib
[10] = C20orf196 KO vs parental SUM149 tumouroids, seven days treatment

| SMILES | cell death [1, 9] | reduction in the number of nuclei per tumoroid [1, 9] | reduction in tumoroid size [1, 9] | REV7 gRNA's synthetic lethal with Polθ inhibition, out of 10 (DLD1 colon cancer cells) | position of REV7 among hits based on log fold change (DLD1 colon cancer cells) | cell death (fraction of dead cells) ([1]; C20orf196 KO vs parental SUM149 tumouroid cultures, seven days treatment) | sensitivity by reduction in number of nuclei per tumouroid [1, 10] | sensitivity by reduction in tumouroid size [1, 10] | cell death (fraction of dead cells) [2] | sensitivity by relative survival (colonies) [3] | sensitivity by reduction in number of colonies ([4]; C20orf196 KO clones vs parental SUM149, 14 days) | sensitivity of parental SUM149 cells ([4]; parental SUM149 (BRCA1 mutation), 14 days) | sensitivity by reduction in number of colonies [5] | sensitivity by relative survival [6] | sensitivity by relative survival [7] | resistance to olaparib [8] |
| --- | --- | --- | --- | --- | --- | --- | --- | --- | --- | --- | --- | --- | --- | --- | --- | --- |
| Cc1cccc(N(C)C(=O)[C@@H]2C[C@H](O)CN2c2nc(C)cc(C(F)(F)F)c2C#N)c1 [Compound B, (2S,4S)-1-(3-cyano-6-methyl-4-(trifluoromethyl)pyridin-2-yl)-4-hydroxy-N-methyl-N-(m-tolyl)pyrrolidine-2-carboxamide] | significantly more cell death | greater reduction in the number of nuclei per tumoroid | greater reduction in tumoroid size | 7 | ≤ 25 |  |  |  |  |  |  |  |  |  |  |  |
| O=C(c1cc(Cc2n[nH]c(=O)c3ccccc23)ccc1F)N1CCN(C(=O)C2CC2)CC1 [olaparib, reference compound] |  |  |  |  |  | significantly less cell death | less sensitive | less sensitive | less cell death | still retain resistance | more resistant | hypersensitive | resistance; also recorded: more resistant | significantly more resistant | trend for increased resistance | induces resistance; also recorded: marked resistance |

From US20220387544A1, “NOVEL THERAPEUTIC USE” (Artios Pharma Limited, priority 2019, published 2022)
